In ChEMBL document CHEMBL1201862, “PubChem BioAssay data set” (2004):
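Interpolation was linear, between the two tested concentrations surrounding the appropriate level; five concentrations were tested over 48 hours in 96-well plates. GI50: concentration for 50% inhibition of growth.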 Calls of active or inactive are those of the source. No stated cut-off is given here; in the data, active = GI50 up to about 1.1 µM and inactive = higher.

Experiments:
Test in all cases: NCI tumour cell line growth inhibition, 48 h
CAKI-1 = test system: CAKI-1
Malme-3M = test system: Malme-3M
Hs-578T = test system: Hs-578T
SR = test system: SR
SW-620 = test system: SW-620
RPMI-8226 = test system: RPMI-8226
NCI-H23 = test system: NCI-H23
HCT-116 = test system: HCT-116
BT-549 = test system: BT-549
OVCAR-5 = test system: OVCAR-5
SK-OV-3 = test system: SK-OV-3
HCT-15 = test system: HCT-15
786-0 = test system: 786-0
T47D = test system: T47D
RXF 393 = test system: RXF 393
SF-295 = test system: SF-295
OVCAR-8 = test system: OVCAR-8
MDA-MB-231 = test system: MDA-MB-231
HT-29 = test system: HT-29
MOLT-4 = test system: MOLT-4

| Structure (SMILES) | GI50 (CAKI-1) | GI50 (Malme-3M) | GI50 (Hs-578T) | GI50 (SR) | GI50 (SW-620) | GI50 (RPMI-8226) | GI50 (NCI-H23) | GI50 (HCT-116) | GI50 (BT-549) | GI50 (OVCAR-5) | GI50 (SK-OV-3) | GI50 (HCT-15) | GI50 (786-0) | GI50 (T47D) | GI50 (RXF 393) | GI50 (SF-295) | GI50 (OVCAR-8) | GI50 (MDA-MB-231) | GI50 (HT-29) | GI50 (MOLT-4) |
| --- | --- | --- | --- | --- | --- | --- | --- | --- | --- | --- | --- | --- | --- | --- | --- | --- | --- | --- | --- | --- |
| c1ccc(C(CCN2CCCC2)c2ccccn2)cc1 (stereo unspecified) | > 100 µM (inactive) | > 100 µM (inactive) | > 100 µM (inactive) | < 0.01 µM (active) | > 100 µM (inactive) | > 100 µM (inactive) | > 100 µM (inactive) | > 100 µM (inactive) | > 100 µM (inactive) | > 100 µM (inactive) | > 100 µM (inactive) | > 100 µM | > 100 µM (inactive) | > 100 µM (inactive) | > 100 µM (inactive) | > 100 µM (inactive) | > 100 µM (inactive) | > 100 µM (inactive) | > 100 µM (inactive) |  |
| Cn1c2ccccc2c2ccc3c(c21)C(=O)c1ccccc1C3=O | 22.2 µM (inactive) | 5.86 µM (inactive) | 14.1 µM (inactive) | 3.29 µM (inactive) | 28.2 µM (inactive) | 12.2 µM (inactive) | 15.7 µM (inactive) | 17.3 µM (inactive) | 21.1 µM (inactive) | > 100 µM (inactive) | 15.8 µM (inactive) | 15.1 µM | 17.6 µM (inactive) | 11.7 µM (inactive) | 15.8 µM (inactive) | 18.2 µM (inactive) | 17.3 µM (inactive) | 19.5 µM (inactive) | 16.9 µM (inactive) |  |
| CC(=O)Nc1ccc(N2C(=O)/C(=C\c3cccc(Oc4ccccc4)c3)SC2c2ccccc2)cc1 (stereo unspecified) | 66.4 µM (inactive) | 28 µM (inactive) | 12.7 µM (inactive) | 21 µM (inactive) | 30.8 µM (inactive) | 24.7 µM (inactive) | 26.1 µM (inactive) | 18.1 µM (inactive) | 33.3 µM (inactive) | > 100 µM (inactive) | 16.1 µM (inactive) | 78.5 µM | 37.8 µM (inactive) | 54.1 µM (inactive) | 30.4 µM (inactive) | 38.5 µM (inactive) | 17.1 µM (inactive) | 32.6 µM (inactive) |  | 27.9 µM (inactive) |
| COc1cc(C2c3cc4c(cc3OC(NN)C2C)OCO4)cc(OC)c1OC (stereo unspecified) | 3.36 µM (inactive) | 0.34 µM (active) | 0.234 µM (active) | 0.287 µM (active) | 0.447 µM (active) | 0.289 µM (active) | 1.11 µM (active) | 0.473 µM (active) | 9.12 µM (inactive) |  | 1.38 µM (inactive) | 0.406 µM | 0.653 µM (active) | 87.3 µM (inactive) | 0.593 µM (active) | 0.406 µM (active) | 1.93 µM (inactive) | 4.09 µM (inactive) | 0.36 µM (active) | 0.406 µM (active) |
| CCCCC/N=C/c1c(O)c(O)c(C(C)C)c2cc(C)c(-c3c(C)cc4c(C(C)C)c(O)c(O)c(/C=N/CCCCC)c4c3O)c(O)c12 | 18 µM (inactive) | 12.7 µM (inactive) | 17.2 µM (inactive) | 4.24 µM (inactive) | 6.97 µM (inactive) | 8.26 µM (inactive) | 12 µM (inactive) | 11 µM (inactive) | 7.87 µM (inactive) | 19 µM (inactive) | 7.06 µM (inactive) | 5.85 µM | 11.8 µM (inactive) | 3.98 µM (inactive) | 11.2 µM (inactive) |  | 7.4 µM (inactive) | 7.43 µM (inactive) | 2.88 µM (inactive) |  |
| CC(C)C1OC(/C=C/c2ccccc2)OCC1(C)C (stereo unspecified) | 31.8 µM (inactive) | 0.91 µM (active) | 22.8 µM (inactive) | 30.1 µM (inactive) | 30.7 µM (inactive) | 17.8 µM (inactive) | 27.7 µM (inactive) | 25.4 µM (inactive) | 36.1 µM (inactive) | 44.5 µM (inactive) | 48.3 µM (inactive) | 24.8 µM | 37.1 µM (inactive) | 31.4 µM (inactive) | 18.1 µM (inactive) | 31 µM (inactive) | 31.6 µM (inactive) | 36.4 µM (inactive) | 27.7 µM (inactive) |  |
| O=P1(Oc2ccccc2)N=P(c2ccccc2)(c2ccccc2)C=C(c2ccc(Cl)cc2)N1 (stereo unspecified) | 9.66 µM (inactive) | 15.5 µM (inactive) | 16.7 µM (inactive) | 3.6 µM (inactive) | 12.3 µM (inactive) | 3.03 µM (inactive) | 15.3 µM (inactive) | 7.23 µM (inactive) | 16 µM (inactive) | 13.1 µM (inactive) | 13.2 µM (inactive) | 9.84 µM | 13.4 µM (inactive) | 5.19 µM (inactive) |  | 6.92 µM (inactive) | 14.4 µM (inactive) | 16.5 µM (inactive) | 4.29 µM (inactive) | 5.18 µM (inactive) |
| O=c1cc(-c2ccccc2)[nH]c2ccc(N3CCOCC3)cc12 | 0.0291 µM (active) | 14 µM (inactive) | 0.0239 µM (active) | < 0.017 µM (active) | 0.0371 µM (active) | 0.065 µM (active) | 0.0414 µM (active) | < 0.0167 µM (active) | 23.8 µM (inactive) |  | 0.0327 µM (active) | 0.0241 µM | 0.0363 µM (active) | > 100 µM (inactive) | 0.04 µM (active) | 0.0236 µM (active) | 0.042 µM (active) | 0.0618 µM (active) | 0.0211 µM (active) | 0.104 µM (active) |
